Test results taken from US11371097B2, “Articles for diagnosis of liver fibrosis” (THE GOVERNMENT OF THE UNITED STATES, as represented by THE …, priority 2015, dated 2022).
Several values for one entry are separate records, joined by “and”; a condition that tells them apart may be missing. Equal values may be shown once. Entries after “also recorded” stand apart in the source; their conditions may differ.

Assays:
[1] = tested on: Timp1; experiment: qPCR of liver RNA: Timp1; assay type: in vivo, Male Sprague-Dawley rats; conditions: across dose groups, vs control
Procedure: Working on dry ice, a portion (−10 mg) of flash-frozen liver was cut from each sample and transferred to a clean, labeled tube. Total RNA was then isolated using Qiagen's miRNeasy 96 kit (Qiagen, Valencia, Calif.) following manufacturer's instructions with a final elution volume of −150 μL (2×75 μL). The quality and quantity of RNA samples were evaluated with a 2100 Bioanalyzer (Agilent Technologies, Santa Clara, Calif.), using the Agilent RNA 6000 Nano Reagents and a multiwell NanoDrop 8000 spectrophotometer (Thermo Fisher Scientific, Waltham, Mass.).
Using 1 μg RNA input, cDNA was generated using a QuantiTect Reverse Transcription kit (Qiagen, Valencia, Calif.) following manufacturer's instructions. Applied Biosystems SYBR Green Master Mix was used in a 20 μL qPCR reaction with 2 μL of cDNA template and a 2.tM final concentration of each primer. A total of five genes were targeted (Gapdh, Actb, Timp1, Tgfbl, and Psma5), two of which served as the endogenous controls (Gapdh and Actb). An Applied Biosystems 7500 Real-Time PCR System (Applied Biosystems, Foster City, Calif.) was used for thermal cycling and fluorescence detection using the default settings for Quantitation-Comparative CT with SYBR® . . . Green Reagents which uses the following scheme: 95° C. for 10 minutes followed by 40 cycles of: 95° C. for 15 seconds, 60° C. for 1 minute, and a fluorescence signal read. […]

[2] = tested on: tissue, plasma, or serum protein abundance; experiment: Global semiquantitative proteomics (iTRAQ mass spectrometry) of tissue, plasma, serum; assay type: in vivo, Rattus norvegicus; conditions: for Differentially expressed proteins: global proteomics
Source text: Global semiquantitative proteomics analysis (iTRAQ analysis) identified protein products of a subset of the 24 genes differentially expressed in liver tissue specific for the fibrosis phenotype (Table 6). Six protein products were identified in plasma, four in the serum, and two in the liver tissue (Table 6). All protein products were identified in the contrast analysis as specific for the fibrosis phenotype. The direction of the changes in protein products matched the transcriptomics data with the exception of insulin-like growth factor binding protein complex acid labile subunit precursor. […] (Ippolito D L, et. al. Gene expression patterns associated with histopathology in toxic liver fibrosis. Tox Sci. 2015 Sep. 22. pii: kfv214)
(§1) Serum miRNA expression was measured by next-generation sequencing. Gene expression in the liver was determined by microarray, and global serum and liver protein expression was determined by semi-quantitative mass spectrometry. […] Transcriptomic analysis identified 506 differentially expressed genes in the liver. 13 miRNAs were predicted to target 100 unique differentially expressed genes in the liver. Global proteomics analysis identified 131 differentially expressed proteins in the liver and 53 in the serum. Of these, 7 miRNAs targeted 13 unique genes coding for differentially expressed liver tissue proteins and 3 miRNAs targeted 3 unique genes coding for serum proteins. These 16 differentially expressed miRNAs in the serum are predicted to target and potentially regulate gene expression contributing to the progression of toxic liver injury. (Fermenter M G et al. Serum miRNA as prognostic indicators of toxic liver injury. Submitted abstract in October 2015 for presentation at the Society of Toxicology in March 2016 (New Orleans, La.)).

[3] = tested on: serum miRNA; experiment: Serum miRNA expression by next-generation sequencing; assay type: in vivo, rats; conditions: FDR<0.05
Procedure: as §1

[4] = tested on: 67 genes on the fibrosis gene panel; experiment: Multiplexed fibrosis gene panel (QuantiGene 2.0 Plex / Bioplex) on liver RNA
Procedure: mRNA is isolated and purified from lysed tissue biopsy specimens. The target mRNA is incubated with beads conjugated to capture probes (each probe is an oligonucleotides specific for one of the genes in the panel). The target is hybridized to the probe by a capture extender-capture probe interaction. Specific mRNA targets hybridize overnight to the respective beads. The signal is amplified by incubating mRNA-capture probe pairs by affixing an amplifier affixed to a biotinylated label probe. Streptavidin-conjugated phycoerythrin (SAPE) is bound to the biotinylated probe to amplify the signal. The signal is detected and quantified by Bioplex suspension array instrumentation, which measures the SAPE fluorescence signal proportional to the amount of mRNA transcripts captured by the bead.
Candidate genes identified by co-expression modules and pathway/network approaches were fabricated into a custom gene panel using a commercial source (the QuantiGene 2.0 Plex assay, Affymetrix, Santa Clara, Calif.). A total of 71 genes plus 3 housekeeping genes were selected. Using 150 ng RNA input, samples were processed following manufacturer's instructions for purified RNA with use of the HandHeld Magnetic Plate Washer. Plates were read immediately following the final wash using the BioPlex 200 instrument (BioRad, Hercules, Calif.). The following parameters were set on the BioPlex instrument: sample size=100 μL; DD Gate=5,000-25,000; Timeout=45 sec; Bead Event/Bead Region=100.
For each sample, the average signal intensity was determined as recommended by the manufacturer. Duplicates were averaged. The average background signal for each gene was subtracted. Assay limit of detection was determined by adding three standard deviations of assay background signals to the average intensity of the background control wells. All intensities lower than the limit of detection for each probe was set to one unit above the probe's limit of detection. Probes with all intensities below the assay limit of detection were removed from the final analysis. The test gene signal was divided by the average intensities of the three normalization genes (Gapdh, Hprt1, Ppib). For each test gene, the fold change was calculated by dividing the normalized value for the treated samples by the normalized value of the vehicle-treated controls. Fold changes were plotted as log2 fold change. Gene expression data were imported into Partek Genomics Suite 6.0 (Partek, Inc., St. Louis, Mo.). Principal component analysis was used for multivariate interpretation to determine sources of variation across sample groups (Joliffe I T, Morgan B J. Principal component analysis and exploratory factor analysis. Statistical methods in medical research 1992; 1(1):69-95). Differentially expressed genes were determined by analysis of variance (ANOVA) with contrasts, setting the ANOVA factors as toxicant and the histopathological endpoint of fibrosis (any score >0). ANOVA variables were fibrosis score 0 (none) vs. score of >0 (minimal, mild, moderate, and marked). For hierarchical biclustering, differentially expressed genes were standardized by setting the genes expressed to a mean of zero and scaling to a standard deviation of one. Euclidean geometry was used to cluster row and column dissimilarity using a method of average linkage.
Chemical-dose groups were down-selected based on histopathology to conform to the 96-well assay format of the multiplexed panel of presumptive fibrosis genes. Three of the four dose groups were evaluated for the fibrogenic chemicals allyl alcohol and 4,4′-methylenedianiline. A single dose was selected with group-matched vehicle controls for each of the remaining chemicals. […] The highest dose of bromobenzene was selected because the vacuolation pathology was only observed at this dose.
Isolated liver RNA was incubated with microbead-bound capture probes specific for the 71 presumptive fibrogenic genes and three housekeeping normalization genes.

[5] = plasma, 4,4′-methylenedianiline/vehicle, Group 2
[6] = serum, 4,4′-methylenedianiline/vehicle, Group 2
[7] = tissue, 4,4′-methylenedianiline/vehicle, Group 2
[8] = 4,4′-MDA 59.7 mg/kg, animals 93-96

SMILES: Nc1ccc(Cc2ccc(N)cc2)cc1 [4,4′-methylenedianiline]
- Timp1 gene expression by qPCR [1]: showed a dose-dependent increase; also recorded: dose-dependent increases in gene expression
- Differentially expressed proteins ([2]; liver): 131
- Fold change alpha-2-macroglobulin precursor [2, 5]: 2.2 Fold change
- Fold change ceruloplasmin isoform 1 precursor [2, 5]: 2.5 Fold change
- Fold change fibronectin precursor [2, 5]: −1.3 Fold change
- Fold change insulin-like growth factor-binding protein complex acid labile subunit precursor [2, 5]: −1.4 Fold change
- Fold change vitronectin precursor [2, 5]: −1.6 Fold change
- Differentially expressed proteins ([2]; serum): 53
- Fold change alpha-2-macroglobulin precursor [2, 6]: 2.4 Fold change
- Fold change ceruloplasmin isoform 1 precursor [2, 6]: 2.4 Fold change
- Fold change complement C1q subcomponent subunit B precursor [2, 6]: 1.6 Fold change
- Fold change vitronectin precursor [2, 6]: −1.1 Fold change
- Fold change ceruloplasmin isoform 1 precursor [2, 7]: 3.0 Fold change
- Fold change fibronectin precursor [2, 7]: 1.4 Fold change
- Differentially expressed miRNA [3]: 16
- Downregulated miRNA [3]: 4
- Upregulated miRNA [3]: 12
- Anxa2 differential expression [4, 8]: 2.439 and 1.755 and 2.514
- Arpc1b differential expression [4, 8]: 1.147 and 1.069 and 1.373
- C1qb differential expression [4, 8]: 0.893 and 0.937 and 1.469
- CD53 differential expression [4, 8]: 0.950 and 1.045 and 1.560
- Capg differential expression [4, 8]: 1.169 and 1.723 and 2.026
- Ccl2 differential expression [4, 8]: 1.483 and 1.928 and 1.705
- Ctgf differential expression [4, 8]: 1.026 and 0.691 and 1.013
- Cxcl16 differential expression [4, 8]: 1.969 and 1.196 and 2.174
- Cyba differential expression [4, 8]: 1.216 and 1.165 and 2.041
- Dsc2 differential expression [4, 8]: 0.258 and 0.244 and 0.474
- Fam102b differential expression [4, 8]: 0.577 and 0.939 and 0.845
- Fam105a differential expression [4, 8]: 1.236 and 1.186 and 1.900
- Fxyd5 differential expression [4, 8]: 1.025 and 0.916 and 1.613
- Gpnmb differential expression [4, 8]: 1.876 and 1.911 and 3.162
- Itga1 differential expression [4, 8]: 1.064 and 1.196 and 1.743
- Itgb2 differential expression [4, 8]: 0.709 and 1.138 and 1.216
- Lame2 differential expression [4, 8]: 1.485 and 0.755 and 1.416
- Lbp differential expression [4, 8]: 2.023 and 1.422 and 2.026
- Lgals3 differential expression [4, 8]: 1.931 and 2.085 and 2.575
- Pkm2 differential expression [4, 8]: 1.314 and 1.491 and 2.389
- Plau differential expression [4, 8]: 0.941 and 0.957 and 1.332
- RT1-DMa differential expression [4, 8]: 1.381 and 2.022 and 2.522 and 1.938
- RT1-Da differential expression [4, 8]: 1.431 and 2.375 and 2.640
- Serpine1 differential expression [4, 8]: 1.151 and 1.305 and 1.475
- TagIn2 differential expression [4, 8]: 1.404 and 1.169 and 1.971
- Timp1 differential expression [4, 8]: 1.871 and 1.153 and 2.099
- RT1-DMa differential expression ([4]; 4,4′-MDA 162 mg/kg, animals 97-100): 1.970 and 1.713 and 2.157 and 1.814
- Hierarchical biclustering of log2 fold-changes in panel gene expression ([4]; liver, 67 genes): clustered together
